16 compounds from US5086056A, “2-(heterocyclylalkyl)imidazopyridines” (Janssen Pharmaceutica N.V., priority 1987, dated 1992) can be followed below.

In the experiment the test system is compound 48/80-induced lethality. The experiment is described as follows: Protection of rats from compound 48/80-induced lethality. To be noted: Rattus norvegicus; dose protecting 50% of animals; s.c. or oral, 1 hour before compound 48/80 0.5 mg/kg i.v.; survival after 4 hours; read-out: compound 48/80 lethality test in rats-ED50. It counts as in vivo, rat (male, inbred Wistar strain). The text has this:
Protection of rats from compound 48/80-induced lethality
Compound 48/80, a mixture of oligomers obtained by condensation of 4-methoxy-N-methylbenzeneethanamine and formaldehyde has been described as a potent histamine releasing agent (Int. Arch. Allergy, 13, 336 (1958)). The protection from compound 48/80-induced lethal circulatory collapse appears to be a simple way of evaluating quantitatively the antihistaminic activity of test compounds. Male rats of an inbred Wistar strain, weighing 240-260 g were used in the experiment. After overnight starvation the rats were transferred to conditioned laboratories (temp.=21°±1° C., relative humidity=65±5%). The rats were treated subcutaneously or orally with a test compound or with the solvent (NaCl solution, 0.9%). One hour after treatment there was injected intraveneously compound 48/80, freshly dissolved in water, at a dose of 0.5 mg/kg (0.2 ml/100 g of body weight). In control experiments, wherein 250 solvent-treated animals were injected with the standard dose of compound 48/80, not more than 2.8% of the animals survived after 4 hours. Survival after 4 hours is therefore considered to be a safe criterion of a protective effect of drug administration. Said ED50 -values are the values in mg/kg body weight at which the tested compounds protect 50% of the tested animals against compound 48/80-induced lethality.

Take `CCOCCn1c(CN2CCN(CCCC(C)=O)CC2)nc2cccnc21` [Compound 44]: the ED50 was found to be 0.005 mg/kg.

Regarding `CCOCCn1c(CN2CCN(CCNC(=O)c3cccn3C)CC2)nc2cccnc21` [Compound 111, N-[2-[4-[[3-(2-ethoxyethyl)-3H-imidazo[4,5-b]pyridin-2-yl]methyl]-1-piperazinyl]ethyl]-1-methyl-1H-pyrrole-2-carboxamide], the ED50 was 0.02 mg/kg. For `C=CCOCCn1c(CN2CCN(C)CC2)nc2cccnc21` [Compound 126, 2-[(4-methyl-1-piperazinyl)methyl]-3-[2-(2-propenyloxy)ethyl]-3H-imidazo[4,5-b]pyridine] the value was 0.02 mg/kg; for `CCOCCn1c(CN2CCN(CCNC(=O)c3ccoc3)CC2)nc2cccnc21` [Compound 110, N-[2-[4-[[3-(2-ethoxyethyl)-3H-imidazo[4,5-b]pyridin-2-yl]methyl]-1-piperazinyl]ethyl]-3-furancarboxamide], 0.01 mg/kg; for `CCOCCn1c(CN2CCN(CCc3ccccn3)CC2)nc2cccnc21` [Compound 120, 3-(2-ethoxyethyl)-2-[[4-[2-(2-pyridinyl)ethyl]-1-piperazinyl]methyl]-3H-imidazo[4,5-b]pyridine], 0.005 mg/kg. `CCOCCn1c(CN2CCN(CCc3c(C)nc4ccccn4c3=O)CC2)nc2cccnc21` [Compound 76, 3-[2-[4-[[3-(2-ethoxyethyl)-3H-imidazo[4,5-b]pyridin-2-yl]methyl]-1-piperazinyl]ethyl]-2-methyl-4H-pyrido[1,2-a]pyrimidin-4-one]: the ED50 stood at 0.02 mg/kg. For `CCOCCn1c(CN2CCN(CCc3ccc(OC)cc3)CC2)nc2cccnc21` [Compound 47] the value was 0.02 mg/kg; for `CCOCCn1c(CN2CCN(C)CC2)nc2cccnc21` [Compound 17, 3-(2-ethoxyethyl)-2-[(4-methyl-1-piperazinyl)methyl]-3H-imidazo[4,5-b]pyridine], 0.04 mg/kg.

With `CCOCCn1c(CN2CCN(CCNc3ncccn3)CC2)nc2cccnc21` [Compound 105, N-[2-[-4-[[3-(2-ethoxyethyl)-3H-imidazo[4,5-b]pyridin-2-yl]methyl]-1-piperazinyl]ethyl]-2-pyrimidinamine], the ED50 is 0.01 mg/kg. In the case of `CCOCCn1c(CN2CCN(CCC(=O)NC(C)C)CC2)nc2cccnc21` [Compound 93, 4-[[3-(2-ethoxyethyl)-3H-imidazo[4,5-b]pyridin-2-yl]methyl]-N-(1-methylethyl)-1-piperazinepropanamide] it was 0.01 mg/kg.

Consider `CCOCCn1c(CN2CCN(CCc3scnc3C)CC2)nc2cccnc21` [Compound 74, 3-(2-ethoxyethyl)-2-[[4-[2-(4-methyl-5-thiazolyl)ethyl]-1-piperazinyl]methyl]-3H-imidazo[4,5-b]pyridine], for which the ED50 stood at 0.01 mg/kg. For `CCOCCn1c(CN2CCN(CCCn3c(=O)[nH]c4ccccc43)CC2)nc2cccnc21` [Compound 77, 1-[3-[4-[[3-(2-ethoxyethyl)-3H-imidazo[4,5-b]pyridin-2-yl]methyl]-1piperazinyl]propyl]-1,3-dihydro-2H-benzimidazol-2-one] the value was 0.02 mg/kg; for `C#CCOCCn1c(CN2CCN(C)CC2)nc2cccnc21` [Compound 125, 2-[(4-methyl-1-piperazinyl)methyl]-3-[2-(2-propynyloxy)ethyl]-3H-imidazo[4,5-b]pyridine], 0.02 mg/kg; for `CCOCCN1CCN(Cc2nc3cccnc3n2CCOCC)CC1` [Compound 42], 0.02 mg/kg.

Turning to `CCOCCn1c(CN2CCN(CCCOc3ccc(F)cc3)CC2)nc2cccnc21` [Compound 79, 3-(2-ethoxyethyl)-2-[[4-[3-(4-fluorophenoxy)propyl]-1-piperazinyl]methyl]-3H-imidazo[4,5-b]pyridine], the ED50 was 0.02 mg/kg. In the case of `Cc1ccc(Cn2c(CN3CCN(C)CC3)nc3cccnc32)o1` [Compound 14, 3-[(5-methyl-2-furanyl)methyl]-2-[ (4-methyl-1-piperazinyl)methyl]-3H-imidazo[4,5-b]pyridine] it was 0.01 mg/kg.
